These results are taken from ChEMBL document CHEMBL1926501 (J Med Chem, 2011).

Series [1] addresses T1, Amine oxidase [flavin-containing] A (Rattus norvegicus, UniProt P21396).
T1 sequence (P21396 whole entry): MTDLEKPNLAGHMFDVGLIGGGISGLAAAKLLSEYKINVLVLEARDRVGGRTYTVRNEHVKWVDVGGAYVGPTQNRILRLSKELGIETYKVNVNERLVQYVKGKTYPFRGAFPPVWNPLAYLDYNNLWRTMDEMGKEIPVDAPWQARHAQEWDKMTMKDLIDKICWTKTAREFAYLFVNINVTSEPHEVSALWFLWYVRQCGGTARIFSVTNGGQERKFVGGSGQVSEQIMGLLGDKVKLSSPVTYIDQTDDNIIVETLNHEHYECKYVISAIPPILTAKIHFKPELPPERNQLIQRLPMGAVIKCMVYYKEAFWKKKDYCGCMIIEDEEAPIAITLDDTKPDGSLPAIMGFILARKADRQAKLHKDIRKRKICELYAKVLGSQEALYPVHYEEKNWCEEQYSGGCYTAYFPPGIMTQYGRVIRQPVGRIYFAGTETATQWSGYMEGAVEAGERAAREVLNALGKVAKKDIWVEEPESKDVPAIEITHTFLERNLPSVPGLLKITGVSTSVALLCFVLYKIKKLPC
Nature of the series: Irreversible inhibition of rat liver mitochondrial MAO-A using 5-hydroxytriptamine as substrate assessed as substrate consumption at 10 nM measured up to 420 mins. Particulars: 7 h, 0.01 µM; call rule not given here.

Series [2] concerns the target T1, Amine oxidase [flavin-containing] A. Nature of the series: Irreversible inhibition of rat liver mitochondrial MAO-A using 5-hydroxytryptamine as substrate at 6 nM preincubated for 30 mins measured after three consecutive washes with buffer. Particulars: 0.006 µM.
For series [3] the target is unchanged. Nature of the series: Time-dependent inhibition of rat liver mitochondrial MAO-A using 5-hydroxytryptamine at 6 nM by scintillation counting. Particulars: 0.006 µM.
Series [4] concerns the target T2, Amine oxidase [flavin-containing] B (Rattus norvegicus, UniProt P19643).
T2 sequence (P19643 whole entry): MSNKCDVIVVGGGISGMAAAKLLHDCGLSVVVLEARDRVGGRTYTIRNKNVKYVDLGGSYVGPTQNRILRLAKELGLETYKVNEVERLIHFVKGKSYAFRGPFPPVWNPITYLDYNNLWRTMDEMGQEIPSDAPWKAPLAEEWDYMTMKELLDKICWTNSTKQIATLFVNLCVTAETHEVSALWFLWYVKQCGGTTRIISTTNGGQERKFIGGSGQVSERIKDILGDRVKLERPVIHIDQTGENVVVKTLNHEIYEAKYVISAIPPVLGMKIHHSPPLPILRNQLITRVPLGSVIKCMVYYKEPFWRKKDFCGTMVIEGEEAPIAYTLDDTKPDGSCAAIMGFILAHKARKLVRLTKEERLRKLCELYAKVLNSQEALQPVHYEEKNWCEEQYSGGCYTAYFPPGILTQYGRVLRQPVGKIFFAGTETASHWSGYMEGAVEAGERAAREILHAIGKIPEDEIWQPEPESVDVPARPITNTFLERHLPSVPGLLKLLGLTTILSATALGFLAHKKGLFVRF
Nature of the series: Time-dependent inhibition of rat liver mitochondrial MAO-B using phenylethylamine at 45 nM. Particulars: 0.045 µM.

Series [5] addresses T3, Acetylcholinesterase (Homo sapiens, UniProt P22303). Particulars: 100 uM.
Description: Inhibition of human AChE-induced amyloid beta (1 to 40) aggregation at 100 uM measured every 10 mins for 10 hrs by thioflavin T-based fluorometric analysis
Series [6] addresses Cholinesterase (Homo sapiens, UniProt P06276). Nature of the series: Inhibition of human serum BuchE using butyrylthiocholine iodide as substrate preincubated for 10 mins measured after 15 mins of substrate addition by Ellman's method. For orientation: In Ellman's method for cholinesterases, released thiocholine reacts with DTNB.
Series [7] has as its target T2, Amine oxidase [flavin-containing] B. Nature of the series: Reversible inhibition of rat liver mitochondrial MAO-B using phenylethylamine assessed as recovered enzyme activity at 45 nM preincubated for 30 mins measured after three consecutive washes with buffer. Also on record: scale not given: the % may be the effect or the level left. The following applies: read-out: Activity.

Series [8] has the same target. Put plainly: Irreversible inhibition of rat liver mitochondrial MAO-B using phenylethylamine as substrate assessed as substrate consumption at 100 nM measured up to 420 mins. Particulars: 7 h, 0.1 µM.
Series [9] deals with T3, Acetylcholinesterase. Nature of the series: Inhibition of cerebral human recombinant AchE expressed in HEK293 cells using acetylthiocholine iodide as substrate preincubated for 10 mins measured after 15 mins of substrate addition by Ellman's method.
The target in series [10] is T1, Amine oxidase [flavin-containing] A. Nature of the series: Irreversible inhibition of rat liver mitochondrial MAO-A using 5-hydroxytryptamine as substrate at 6 nM preincubated for 30 mins measured after three consecutive centrifugation. The following applies: 0.006 µM.
In series [11] the target is T2, Amine oxidase [flavin-containing] B. Nature of the series: Non-competitive inhibition of rat liver mitochondrial MAO-B using phenylethylamine as substrate by Line-Weaver Burk plot analysis.
For series [12] the target is unchanged. Put plainly: Reversible inhibition of rat liver mitochondrial MAO-B using phenylethylamine as substrate assessed as substrate consumption at 100 nM preincubated for 30 mins measured up to 420 mins. The following applies: 7 h, 0.1 µM.
Series [13] has as its target T1, Amine oxidase [flavin-containing] A. Nature of the series: Irreversible inhibition of rat liver mitochondrial MAO-A using 5-hydroxytriptamine as substrate assessed as substrate consumption at 10 nM preincubated for 30 mins measured up to 420 mins. The following applies: 7 h, 0.01 µM.
The target is the same in series [14].
Description: Inhibition of rat liver mitochondrial MAO-A using [14C]-5-hydroxytryptamine after 30 mins by scintillation counting
The target in series [15] is T2, Amine oxidase [flavin-containing] B.
Description: Inhibition of rat liver mitochondrial MAO-B using [14C]-phenylethylamine after 30 mins by scintillation counting
The target in series [16] is Acetylcholinesterase (Electrophorus electricus, UniProt O42275).
Description: Inhibition of Electrophorus electricus AchE using acetylthiocholine iodide as substrate preincubated for 10 mins measured after 15 mins of substrate addition by Ellman's method
The target of series [17] is Cholinesterase (Equus caballus, UniProt P81908).
Cholinesterase (Equus caballus, UniProt P81908), sequence (P81908 whole entry): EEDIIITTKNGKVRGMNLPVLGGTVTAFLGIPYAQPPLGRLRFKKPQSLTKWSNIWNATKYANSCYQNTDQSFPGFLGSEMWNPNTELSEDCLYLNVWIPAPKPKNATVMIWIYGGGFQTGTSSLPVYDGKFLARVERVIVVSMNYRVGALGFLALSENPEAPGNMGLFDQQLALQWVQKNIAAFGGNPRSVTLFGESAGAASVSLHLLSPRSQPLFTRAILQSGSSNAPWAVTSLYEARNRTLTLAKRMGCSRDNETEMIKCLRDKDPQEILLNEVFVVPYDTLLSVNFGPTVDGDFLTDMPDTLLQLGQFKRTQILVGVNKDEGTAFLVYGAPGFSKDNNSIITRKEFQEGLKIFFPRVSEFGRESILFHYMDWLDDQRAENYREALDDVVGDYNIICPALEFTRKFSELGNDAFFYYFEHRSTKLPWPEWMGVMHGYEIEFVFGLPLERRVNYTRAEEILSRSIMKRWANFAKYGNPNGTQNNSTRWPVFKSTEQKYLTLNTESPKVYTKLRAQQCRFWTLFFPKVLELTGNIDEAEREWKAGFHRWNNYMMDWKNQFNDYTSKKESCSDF
Description: Inhibition of equine serum BuchE using butyrylthiocholine iodide as substrate preincubated for 10 mins measured after 15 mins of substrate addition by Ellman's method

Acetylcholinesterase (Electrophorus electricus, UniProt O42275), sequence (O42275 whole entry): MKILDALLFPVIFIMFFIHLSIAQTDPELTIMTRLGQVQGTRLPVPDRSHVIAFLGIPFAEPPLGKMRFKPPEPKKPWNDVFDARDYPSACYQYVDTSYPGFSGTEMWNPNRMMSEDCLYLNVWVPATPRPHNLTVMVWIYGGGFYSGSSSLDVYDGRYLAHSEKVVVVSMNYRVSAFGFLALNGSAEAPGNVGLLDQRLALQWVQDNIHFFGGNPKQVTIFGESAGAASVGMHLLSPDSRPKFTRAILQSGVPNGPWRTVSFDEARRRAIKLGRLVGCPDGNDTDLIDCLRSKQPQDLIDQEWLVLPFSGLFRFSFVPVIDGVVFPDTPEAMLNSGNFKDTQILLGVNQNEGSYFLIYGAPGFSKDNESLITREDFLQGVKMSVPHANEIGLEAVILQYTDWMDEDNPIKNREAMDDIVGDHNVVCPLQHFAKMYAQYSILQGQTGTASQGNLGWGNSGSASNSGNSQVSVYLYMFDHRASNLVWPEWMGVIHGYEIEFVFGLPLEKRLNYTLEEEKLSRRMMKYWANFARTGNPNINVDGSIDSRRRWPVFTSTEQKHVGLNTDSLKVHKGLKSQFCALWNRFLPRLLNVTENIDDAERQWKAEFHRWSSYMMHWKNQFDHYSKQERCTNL
T3 sequence (P22303 whole entry): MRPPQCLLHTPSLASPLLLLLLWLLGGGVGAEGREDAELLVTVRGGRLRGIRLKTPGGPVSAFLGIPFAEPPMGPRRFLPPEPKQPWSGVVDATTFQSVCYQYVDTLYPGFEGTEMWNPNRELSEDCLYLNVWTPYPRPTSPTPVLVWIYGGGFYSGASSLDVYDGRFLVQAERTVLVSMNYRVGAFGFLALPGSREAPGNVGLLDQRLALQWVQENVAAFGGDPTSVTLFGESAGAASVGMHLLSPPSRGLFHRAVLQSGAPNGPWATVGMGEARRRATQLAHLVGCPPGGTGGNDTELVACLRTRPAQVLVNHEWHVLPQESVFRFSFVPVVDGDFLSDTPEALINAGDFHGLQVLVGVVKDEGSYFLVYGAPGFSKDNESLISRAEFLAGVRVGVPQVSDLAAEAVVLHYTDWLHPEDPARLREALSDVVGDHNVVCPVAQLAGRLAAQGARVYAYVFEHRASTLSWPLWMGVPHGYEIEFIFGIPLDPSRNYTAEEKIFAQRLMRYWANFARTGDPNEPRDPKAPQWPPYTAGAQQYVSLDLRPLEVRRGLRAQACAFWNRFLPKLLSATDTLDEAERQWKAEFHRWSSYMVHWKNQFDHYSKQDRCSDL
Cholinesterase (Homo sapiens, UniProt P06276), sequence (P06276 whole entry): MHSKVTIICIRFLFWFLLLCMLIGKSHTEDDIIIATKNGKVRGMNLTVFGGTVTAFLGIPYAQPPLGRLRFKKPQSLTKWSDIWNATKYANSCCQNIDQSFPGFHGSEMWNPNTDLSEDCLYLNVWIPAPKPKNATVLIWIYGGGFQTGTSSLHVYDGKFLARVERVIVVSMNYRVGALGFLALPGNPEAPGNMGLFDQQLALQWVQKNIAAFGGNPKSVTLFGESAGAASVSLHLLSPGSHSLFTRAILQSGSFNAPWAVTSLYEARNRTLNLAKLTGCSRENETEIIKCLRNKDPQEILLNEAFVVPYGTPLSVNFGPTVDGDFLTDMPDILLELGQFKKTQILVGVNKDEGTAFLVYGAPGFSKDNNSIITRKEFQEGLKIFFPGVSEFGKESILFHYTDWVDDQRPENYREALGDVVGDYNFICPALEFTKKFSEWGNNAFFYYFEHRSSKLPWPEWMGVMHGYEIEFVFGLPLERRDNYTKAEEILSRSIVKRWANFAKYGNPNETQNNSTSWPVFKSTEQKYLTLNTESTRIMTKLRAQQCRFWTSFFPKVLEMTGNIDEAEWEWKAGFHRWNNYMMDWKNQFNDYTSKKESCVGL

By inhibition is commonly meant the share of the control response that was lost under treatment. For orientation: IC50 means the point on the concentration scale where inhibition reaches its midpoint. One may read the Ki as the equilibrium dissociation constant of an inhibitor or competing ligand from its target. Take `C#CCN(C)Cc1cc2cc(OCCCC3CCN(Cc4ccccc4)CC3)ccc2n1C`: the “inhibition (INH)” value in series [1], in [2], in [8], in series [10], in series [12] and in [13] was “Active” in each case. In addition, the TDI entry in series [3] and in [4] was “Active” throughout. Besides, the inhibition against Acetylcholinesterase [5] was 32.4%. Moreover, the IC50 at Cholinesterase [6] worked out at 1700 nM; at Acetylcholinesterase [9] it was 380 nM. The activity at 0.045 µM in series [7] stood at 80.5%. Also, the Ki in [11] worked out at 11 nM.

Turning to `C#CCN(C)Cc1cc2cc(OCCCN3CCN(Cc4ccccc4)CC3)ccc2n1C`, the IC50 in series [14] was 31 nM; in series [15] it was 1600 nM; against Acetylcholinesterase [16], above 100 µM.

For `C#CCN(C)Cc1cc2cc(OCCN3CCC(Cc4ccccc4)CC3)ccc2n1C`, the values for the IC50 (in series [14]; in series [15]; against Acetylcholinesterase [16]) were 140 nM, 1400 nM and above 100 µM, respectively.

As to `C#CCN(C)Cc1cc2cc(OCCCN3CCC(Cc4ccccc4)CC3)ccc2n1C`, in series [15], the IC50 came to 11000 nM.

With `C#CCN(C)Cc1cc2cc(OCc3ccccc3)ccc2n1C`, the IC50 at Cholinesterase [17] and on Acetylcholinesterase [16] was above 100 µM in each case.

On to `C#CCN(C)Cc1cc2cc(OCCCCC3CCN(Cc4ccccc4)CC3)ccc2n1C`, for which the figures for the IC50 in [14] and in series [15] were 10 nM and 2700 nM, respectively.
